US8999953B2, “Cyclodextrin nanotechnology for ophthalmic drug delivery” (Oculis EHF, priority 2005, dated 2015)
Converted amounts (≈) assume the structure as drawn. Where a name gives a salt, the structure may show the parent alone.

Legend:
[1] = Eye drop formulation properties (osmolarity, viscosity, dissolved dexamethasone); format: physicochemical; settings: aqueous eye drop suspension with γ-cyclodextrin, aqueous with cosolvent or surfactant or cyclodextrin, thermodynamic from solid; eye drop formulation of EXPERIMENT 4
[2] = Phase-solubility study of dexamethasone with RMβCD or γCD; format: physicochemical; settings: for Phase-solubility diagram type: room temperature
Description: Phase-solubility study was performed to determine the exact amount of RMβCD needed to solubilize dexamethasone in the eye drop medium. An excess amount of dexamethasone was added to aqueous solution containing from 0 to 25% (w/v) RMβCD, benzalkonium chloride (0.02% w/v), EDTA (0.1% w/v), NaCl (0.00 to 0.72% w/v) and HPMC (0.1%). […] The suspensions were allowed to cool to room temperature (22-23° C.) and equilibrate for 7 days. After equilibrium was attained, the suspension was filtered through a 0.45 μm membrane filter, diluted and analyzed by HPLC. […] The phase-solubility was determined to be of AL-type and thus dexamethasone appears to form 1:1 dexamethasone/RMβCD complex in the aqueous eye drop formulation.
Phase-solubility study was performed to determine the exact amount of γCD needed to solubilize dexamethasone. An excess amount of dexamethasone was added to aqueous solution or suspension containing from 0 to 10% (w/v) γCD. […] The suspensions were allowed to cool to room temperature (22-23° C.) and equilibrate for 7 days. After equilibrium was attained, the suspension was filtered through a 0.45 μm membrane filter, and the filtrate diluted and analyzed by HPLC.

physchem = settings: aqueous cyclodextrin solution, 22.5 °C, aqueous with cosolvent or surfactant or cyclodextrin, thermodynamic from solid
rabbit eye = assay: Ocular irritation in rabbits following powder administration; format: in vivo; settings: for Bulbar redness (points) / Discharge (points): drug eye, pure powder, median (range), 0-3 points
Description: Timolol maleate powder was administered to one eye of each rabbit and the other eye was used as control. Both pure timolol maleate powder and freeze-dried with PVP-polymer (2.4% of mass) were tested in 1.0 mg (n=3) and 0.1 mg (n=6) doses. Additionally, four rabbits received 0.1 mg of the pure powder 3 times a day for 8 days. Redness of bulbar conjunctivae and the amount of discharge were rated from photographs (0-3 points, randomized and masked evaluation). Slitlamp examination was also performed. Hematoxylin-eosin (H&E) stained sections of eyes were examined with a light microscope following the 8 days experiment.

[3] = Solubility of drugs in pure aqueous cyclodextrin solutions at room temperature (Experiment 6); settings: 22-23° C.

Question: Which solubility at 7 days [1] does the source give for `C[C@@H]1C[C@H]2[C@@H]3CCC4=CC(=O)C=C[C@]4(C)[C@@]3(F)[C@@H](O)C[C@]2(C)[C@@]1(O)C(=O)CO` [Dexamethasone] here?
Answer: 700 to 900 µg/mL (≈ 1.78 to 2.29 mM)

Question: And the Phase-solubility diagram type ([2]; aqueous RMβCD (0-25% w/v) eye drop solutions)?
Answer: AL-type

Question: What about the solubility at 7 days ([2]; aqueous γ-cyclodextrin solution/suspension, 22.5 °C, aqueous with cosolvent or surfactant or cyclodextrin, thermodynamic from solid, pure water containing γ-cyclodextrin, at 5% (w/v) γCD concentration, read-out: Maximum dexamethasone solubility) of the same molecule?
Answer: 5300 µg/mL (≈ 13.5 mM)

Question: And the Phase-solubility diagram type ([2]; γCD 0 to 10% (w/v) in pure water)?
Answer: BS-type

Question: What about the solubility (physchem) of the same molecule?
Answer: 3000 µg/mL (≈ 7.64 mM)

Question: For `CC(C)(C)NC[C@H](O)COc1nsnc1N1CCOCC1` [Timolol maleate powder, Timolol maleate], which Ocular irritation (rabbit eye; 0.1 mg) is on record?
Answer: negligible ocular irritation

Question: And the “Slitlamp examination, surface photographs and histology, drug versus control eyes” value (rabbit eye; 0.1 mg 3 times a day for 8 days)?
Answer: negligible difference between drug and control eyes

Question: And the Signs of irritation (rabbit eye; 1.0 mg and 0.1 mg doses)?
Answer: No serious or irreversible signs of irritation

Question: And the “Bulbar redness (points)” value (rabbit eye; 0.1 mg × 24 (8 days, n = 4))?
Answer: 0.8 (0.0-1.5) points

Question: And the “Discharge (points)” value (rabbit eye; 0.1 mg × 24 (8 days, n = 4))?
Answer: 0.0 (0.0-0.5) points

Question: And the “Bulbar redness (points)” value (rabbit eye; 1 hr. after 0.1 mg (n = 6))?
Answer: 1.5 (1.0-2.0) points

Question: What about the “Discharge (points)” value (rabbit eye; 1 hr. after 0.1 mg (n = 6)) of the same molecule?
Answer: 0.0 (0.0-1.5) points

Question: And the “Bulbar redness (points)” value (rabbit eye; 1 hr. after 1.0 mg (n = 3))?
Answer: 1.0 (1.0-1.5) points

Question: What about the “Discharge (points)” value (rabbit eye; 1 hr. after 1.0 mg (n = 3)) of the same molecule?
Answer: 1.0 (0.0-2.0) points

Question: And the “Bulbar redness (points)” value (rabbit eye; 24 hr. after 0.1 mg (n = 6))?
Answer: 1.0 (0.0-2.0) points

Question: And the “Discharge (points)” value (rabbit eye; 24 hr. after 0.1 mg (n = 6))?
Answer: 0.0 (0.0-0.0) points

Question: And the “Bulbar redness (points)” value (rabbit eye; 24 hr. after 1.0 mg (n = 3))?
Answer: 1.0 (1.0-1.0) points

Question: And the “Discharge (points)” value (rabbit eye; 24 hr. after 1.0 mg (n = 3))?
Answer: 0.3 (0.0-0.8) points

Question: Which “Drug solubility in aqueous randomly methylated β-cyclodextrin” value ([3]; Randomly methylated β-cyclodextrin 5% w/v) does the source give for `CC1(C)O[C@@H]2C[C@H]3[C@@H]4CCC5=CC(=O)C=C[C@]5(C)[C@@]4(F)[C@@H](O)C[C@]3(C)[C@]2(C(=O)CO)O1` [Triamcinolone acetonide] here?
Answer: 2000 µg/mL

Question: And the “Drug solubility in aqueous γ-cyclodextrin” value ([3]; γ-cyclodextrin 5% w/v)?
Answer: 4400 µg/mL

Question: And the solubility (physchem)?
Answer: 1100 µg/mL (≈ 2.53 mM)
